According to article PMC11881559 (Antimicrobial Agents and Chemotherapy, 2025):
Where two headings read alike, the source gives them in different places.

Key:
[1] = Drug-drug interaction (DDI) study with ritonavir, plasma PK; conditions: 200 mg in combination with ritonavir vs 200 mg alone
[2] = Single ascending dose (SAD) study, plasma PK; assay type: in vivo, human; conditions: for AUC0-t / AUC0-∞ / Cmax / MRT0-∞ / λz: mean (%CV); for t1/2: mean ± SD; for Tmax: median (range)
Method: For the MAD and food-effect studies, the doses were chosen according to the PK and safety results of the SAD study. […] The tablets were administered from the lowest dosage. The next highest dose level was initiated based on PK characteristics and a 5-day safety observation of the previous dose by the investigators and sponsors. […] This study included two groups: one group under feeding conditions (a high-fat diet comprising 110 g of boiled eggs, 240 mL of milk, 20 g of bacon, 20 g of butter, 50 g of toast, 10 g of salad oil, and 115 g of chips consumed within 30 min before dosing) and one group under fasting conditions. […] Interventions for all cohorts, except the 200 mg cohort, were conducted at the First Hospital of Jilin University (Changchun, China). The randomization lists were created using the PLAN statistical procedure in SAS 9.4 software (SAS Institute, Cary, NC, USA). Throughout the study, unblinding was only used in the event of SAEs or other emergency situations; otherwise, blinding was maintained for investigators, participants, and sponsors until the study’s completion.
For the SAD, food-effect, and DDI studies, blood samples were collected before dose administration and at 15 min, 30 min, and 1, 1.5, 2, 3, 4, 6, 8, 12, 24, 36, 48, 72, and 96 h after dose administration. We used collection tubes containing the anticoagulant EDTA for PK assessments. In the MAD study, blood samples were obtained on day 1 at 0 h, 15 min, 30 min, and 1, 1.5, 2, 3, 4, 6, 8, and 12 h after dosing; on days 2–4; and on day 5 at 0 h, 15 min, 30 min, and 1, 1.5, 2, 3, 4, 6, 8, 12, 24, 36, 48, 72, and 96 h after dosing. The […] samples were subsequently centrifuged at 1,300 × g for 10 min at 2–8°C. For the food-effect component, urine samples were collected in tubes containing 0.01% Triton X-100 at the following intervals: 0, 0–6, 6–12, 12–24, 24–48, 48–72, 72–96, 96–120, 120–144, 144–168, and 168–192 h after administration. Fecal samples were collected from 0 h to 192 h after the first dose. All the samples were stored at −80°C.
The standard curve concentrations ranged from 5 to 5,000 ng/mL, 10 to 10,000 ng/mL, and 5 to 5,000 µg/g in the plasma, urine, and fecal samples, respectively. The lower limits of quantification were 5.00 ng/mL, 10.00 ng/mL, and 5.00 µg/g for the plasma, urine, and fecal samples, respectively.
The noncompartmental model (Phoenix WinNonlin ver. 8.2.2.227, Certara, Princeton, USA) was used to calculate the PK parameters: time to maximum observed plasma concentration (Tmax); maximum observed plasma concentration (Cmax); area under the concentration-time curve from the time of dosing to the last time point with measurable plasma concentrations of drug (AUC0-t); AUC from the time of dosing extrapolated to infinity (AUC0-∞); terminal elimination half-life of the drug in plasma (t1/2); clearance (CL/F); volume (Vz/F); terminal phase elimination rate constant (λz); and mean retention time (MRT). The power model was used to evaluate the relationship between PK parameters and the dose level, expressed as ln (PK parameter) = ln (α) + β * ln (dose), where ln (α) is the intercept of the transformed linear regression equation and β is the slope. Upon calculating the 90% CI of β, if the entire 90% CI of β falls within the judgment interval, the PK parameters can be deemed linearly related to the dosage.

Omicron = conditions: in vitro, corrected by the plasma protein binding rate; cited from earlier work
[3] = Preclinical toxicology, NOAEL in rats; assay type: in vivo; conditions: from rat NOAEL, at 60 kg body weight
[4] = Food-effect study, plasma PK; conditions: for AUC0-t / AUC0-∞ / Cmax / MRT0-∞: mean (%CV); for t1/2: mean ± SD
CYP3A = conditions: in vitro CYP reaction phenotyping, preclinical; cited from earlier work
[5] = rats; preclinical animal studies; cited from earlier work
wild-type strain = conditions: in vitro, corrected by the plasma protein binding rate; cited from earlier work
[6] = dogs; preclinical animal studies; cited from earlier work

For O=C(NC1CCCC1)C(=O)[C@H](C[C@@H]1CCNC1=O)NC(=O)[C@@H]1[C@H]2CCC[C@H]2CN1C(=O)[C@@H](NC(=O)C(F)(F)F)C1CCCCC1 [RAY1216, leritrelvir], which “mean AUC0-t increased to” value [1] is on record?
The value was 350.07%.

And the “mean AUC0-∞ increased to” value [1]?
The value was 171.00%.

And the “mean C12h concentration increased by” value [1]?
The value was 417.3 ng/mL.

What about the “mean Cmax increased to” value [1] of the same compound?
Its value is 348.03%.

And the AUC0-t ([2]; 200 mg single dose)?
The AUC0-t was 5,510 (22.7) ng·h/mL.

What about the “AUC0-∞” value ([2]; 200 mg single dose) of the same compound?
Its value is 5,550 (22.7) ng·h/mL.

What about the Cmax ([2]; 200 mg single dose) of the same compound?
The Cmax was 1,270 (42) ng/mL.

And the “MRT0-∞” value ([2]; 200 mg single dose)?
Its value is 5.01 (13.5) h.

And the λz ([2]; 200 mg single dose)?
The λz was 0.214 (6.2) h^−1.

What about the t1/2 ([2]; 200 mg single dose) of the same compound?
Its t1/2 is 3.25 ± 0.202 h.

And the Tmax ([2]; 200 mg single dose)?
Its Tmax is 1.5 (0.5, 2.0) h.

What about the AUC0-t ([2]; 400 mg single dose) of the same compound?
The AUC0-t was 11,700 (45.8) ng·h/mL.

What about the “AUC0-∞” value ([2]; 400 mg single dose) of the same compound?
Its value is 11,700 (45.6) ng·h/mL.

What about the Cmax ([2]; 400 mg single dose) of the same compound?
Its Cmax is 2,250 (53.8) ng/mL.

What about the “MRT0-∞” value ([2]; 400 mg single dose) of the same compound?
The value was 6.05 (9.9) h.

What about the λz ([2]; 400 mg single dose) of the same compound?
Its λz is 0.172 (36) h^−1.

And the t1/2 ([2]; 400 mg single dose)?
The t1/2 was 4.83 ± 2.86 h.

What about the Tmax ([2]; 400 mg single dose) of the same compound?
The Tmax was 1.3 (1.0, 4.0) h.

And the AUC0-t ([2]; 800 mg single dose)?
The AUC0-t was 16,200 (18.7) ng·h/mL.

And the “AUC0-∞” value ([2]; 800 mg single dose)?
Its value is 16,300 (18.8) ng·h/mL.

And the Cmax ([2]; 800 mg single dose)?
Its Cmax is 3,590 (20.2) ng/mL.

What about the “MRT0-∞” value ([2]; 800 mg single dose) of the same compound?
The value was 6.75 (38.2) h.

What about the λz ([2]; 800 mg single dose) of the same compound?
Its λz is 0.128 (73.6) h^−1.

And the t1/2 ([2]; 800 mg single dose)?
The t1/2 was 10.3 ± 9.72 h.

And the Tmax ([2]; 800 mg single dose)?
Its Tmax is 1.5 (1.0, 3.0) h.

And the AUC0-t ([2]; 1,600 mg single dose)?
The AUC0-t was 29,100 (24.1) ng·h/mL.

What about the “AUC0-∞” value ([2]; 1,600 mg single dose) of the same compound?
Its value is 29,100 (24.1) ng·h/mL.

And the Cmax ([2]; 1,600 mg single dose)?
Its Cmax is 6,180 (20.1) ng/mL.

And the “MRT0-∞” value ([2]; 1,600 mg single dose)?
The value was 5.94 (13.4) h.

And the λz ([2]; 1,600 mg single dose)?
The λz was 0.139 (22.4) h^−1.

And the t1/2 ([2]; 1,600 mg single dose)?
The t1/2 was 5.22 ± 1.16 h.

What about the Tmax ([2]; 1,600 mg single dose) of the same compound?
The Tmax was 1.5 (1.0, 4.0) h.

And the “antiviral 90% effective concentration (EC90)” value (Omicron)?
The value was 0.2097 µg/mL.

What about the human equivalent dose [3] of the same compound?
The human equivalent dose was “approximately 10,800 mg/day”.

What about the Tmax ([4]; 500 mg alongside 100 mg ritonavir, fasting) of the same compound?
Its Tmax is 2.5 h.

What about the Tmax ([4]; 500 mg alongside 100 mg ritonavir, high-fat food) of the same compound?
Its Tmax is 3.0 h.

And the AUC0-t ([4]; 800 mg, Fast)?
Its AUC0-t is 22,700 (38.9) ng·h/mL.

And the “AUC0-∞” value ([4]; 800 mg, Fast)?
The value was 23,000 (38.9) ng·h/mL.

What about the Cmax ([4]; 800 mg, Fast) of the same compound?
The Cmax was 4,760 (31.6) ng/mL.

And the “MRT0-∞” value ([4]; 800 mg, Fast)?
The value was 7.01 (26.4) h.

What about the t1/2 ([4]; 800 mg, Fast) of the same compound?
Its t1/2 is 7.72 ± 4.46 h.

And the Tmax ([4]; 800 mg, Fast, median (range))?
Its Tmax is 1.5 (0.5, 3.0) h.

What about the AUC0-t ([4]; 800 mg, Fed) of the same compound?
Its AUC0-t is 34,100 (28) ng·h/mL.

And the “AUC0-∞” value ([4]; 800 mg, Fed)?
Its value is 34,200 (27.9) ng·h/mL.

What about the Cmax ([4]; 800 mg, Fed) of the same compound?
The Cmax was 8,510 (27.6) ng/mL.

And the “MRT0-∞” value ([4]; 800 mg, Fed)?
Its value is 5.96 (22.2) h.

What about the t1/2 ([4]; 800 mg, Fed) of the same compound?
The t1/2 was 7.08 ± 3.61 h.

And the Tmax ([4]; 800 mg, Fed, median (range))?
The Tmax was 3.0 (1.0, 6.0) h.

What about the “Tmax delayed by” value ([4]; 800 mg, feeding vs fasting condition) of the same compound?
The value was 1.5 h.

And the primary metabolizing enzyme (CYP3A)?
The primary metabolizing enzyme was “CYP3A is the primary metabolizing enzyme”.

What about the “no-observed-adverse-effect level (NOAEL)” value [5] of the same compound?
The value was 900 mg/kg/day.

What about the “antiviral 90% effective concentration (EC90)” value (wild-type strain) of the same compound?
Its value is 0.165 µg/mL.

And the “no-observed-adverse-effect level (NOAEL)” value [6]?
Its value is 600 mg/kg/day.
